In BindingDB's records for doi:10.7270/Q2K935WV (Nmmlsc, 2008):
Structures can show the parent of a compound that is named as a salt.

Target: Isoform Bcl-X(L) of Bcl-2-like protein 1 (Bcl-xL) (Homo sapiens, UniProt Q07817)
Experiment: Bcl-XL binding to Bim peptide disruption – biochemical, multiplexed, bead flow cytometry, human Bcl-XL, dose response (AID 1322)
Conditions: pH 7.4, 4 °C
[1] = inactive by the depositor's call

Sequence of Isoform Bcl-X(L) of Bcl-2-like protein 1 (Bcl-xL) (Q07817 whole entry G70A, canonical isoform): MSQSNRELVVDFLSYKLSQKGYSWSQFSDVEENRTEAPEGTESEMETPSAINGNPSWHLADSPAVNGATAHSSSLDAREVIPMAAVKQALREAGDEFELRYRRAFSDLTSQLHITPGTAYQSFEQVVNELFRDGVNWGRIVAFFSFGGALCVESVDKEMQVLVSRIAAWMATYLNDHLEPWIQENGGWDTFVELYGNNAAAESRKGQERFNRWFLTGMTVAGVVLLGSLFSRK

| SMILES | EC50 | EC50 [1] |
| --- | --- | --- |
| CN1CCc2cccc3c2[C@@H]1Cc1ccc(O)c(O)c1-3 | 18.6 µM | – |
| CCOCCCNc1nc(S)nc2cc(OC)c(OC)cc12 | – | 3.43 µM |
| COCCNc1[nH]c(=S)nc2cc(OC)c(OC)cc12 | – | 7.43 µM |
| CN1CCN(C2=C(Cl)C(=O)C(c3cnc(N4CCCCC4)s3)=C(Cl)C2=O)CC1 | – | 1 µM |
| CCOCCCn1c(N)c(C(=O)Nc2sc3c(c2C(=O)OC)CCCC3)c2nc3ccccc3nc21 | – | 1.97 µM |
| CCN1C(=O)/C(=C/C=C2\C=CN(CC)c3ccccc32)SC1=S | – | 29.5 µM |
| CCC(/C=C1\Sc2ccc(OC)cc2N1CCO)=C\c1sc2ccc(OC)cc2[n+]1CCO | 19.2 µM | – |
| O=S1(=O)N=C(N(CCO)N=C/C=C/c2ccccc2)c2ccccc21 | – | 20 µM |
| COc1cc2nc(=S)n(CCCN3CCOCC3)c(N)c2cc1OC | – | 10.9 µM |
| Cc1cc(OCc2cn3cccnc3n2)ccc1Cl [2-[(4-chloranyl-3-methyl-phenoxy)methyl]imidazo[1,2-a]pyrimidine] | – | 17.9 µM |
| O=C(/C=C/c1ccccc1Cl)c1ccccc(=O)c1O [3-[(E)-3-(2-chlorophenyl)prop-2-enoyl]-2-oxidanyl-cyclohepta-2,4,6-trien-1-one] | – | 19.3 µM |
| NC(=O)c1sc2nc3c(c(-c4ccco4)c2c1N)CCC3 [3-amino-4-(2-furyl)-6,7-dihydro-5H-cyclopenta[b]thieno[3,2-e]pyridine-2-carboxamide] | – | 3.43 µM |
| Cc1cc(C)nc(SCc2cc(=O)c(OC(=O)c3ccc(Cl)c([N+](=O)[O-])c3)co2)n1 [4-chloro-3-nitrobenzoic acid [6-[[(4,6-dimethyl-2-pyrimidinyl)thio]methyl]-4-oxo-3-pyranyl] ester] | – | 5.09 µM |
| O=C(N[N-][CH+]c1ccc(-c2ccccc2[N+](=O)[O-])o1)c1cncc(Br)c1 [5-bromo-N-[[5-(2-nitrophenyl)furan-2-yl]methylideneamino]pyridine-3-carboxamide] | – | 28.3 µM |
| COc1cc2nc(=S)[nH]c(NCC3CCCO3)c2cc1OC (stereo unspecified) [6,7-dimethoxy-4-(2-oxolanylmethylamino)-1H-quinazoline-2-thione] | – | 4.65 µM |
| COc1cc(/C=C2\CC/C(=C\c3cc(OC)c(O)c(OC)c3)C2=O)cc(OC)c1O [(2E,5E)-2,5-bis[(4-hydroxy-3,5-dimethoxyphenyl)methylidene]cyclopentan-1-one] | – | 3.02 µM |
| O=C1/C(=C\c2ccc(-c3ccccc3Cl)o2)SC(=S)N1CC1CCCO1 (stereo unspecified) [(5E)-5-[[5-(2-chlorophenyl)furan-2-yl]methylidene]-3-(oxolan-2-ylmethyl)-2-sulfanylidene-1,3-thiazolidin-4-one] | – | 1.55 µM |
| CN1CCc2cccc3c2[C@H]1Cc1ccc(O)c(O)c1-3 [APOMORPHINE HYDROCHLORIDE] | 18.9 µM | – |

| SMILES | EC50 | EC50 [1] |
| --- | --- | --- |
| Cc1cc2n(c1)CCn1c(C)ccc1-2 [MLS000104384] | – | 26.5 µM |
| CCCCNC(=O)c1ccc2nc(-c3ccco3)c(-c3ccco3)nc2c1 [MLS000119995] | – | 25.3 µM |
| Clc1nc(NCc2cccnc2)nc(N2CCOCC2)n1 [MLS000121154] | – | 18.1 µM |
| CCCCNc1[nH]c(=S)nc2cc(OC)c(OC)cc12 [MLS000520261] | 3.81 µM | – |
| COCCCn1c(N)c(C(=O)Nc2sc3c(c2C(=O)OC)CCCC3)c2nc3ccccc3nc21 [MLS000595323] | – | 3.32 µM |
| COc1cc2nc(=S)[nH]c(NCCc3ccc(S(N)(=O)=O)cc3)c2cc1OC [MLS000674601] | – | 0.51 µM |
| Cc1ccnc(SCc2cc(=O)c(OC(=O)c3ccc(Cl)c([N+](=O)[O-])c3)co2)n1 [MLS000696790] | – | 19.6 µM |
| OCCN1CCN(CCCc2c3c(cc4c2CCC4)CCC3)CC1 [MLS000698424] | 16.1 µM | – |
| CCOC(=O)c1c(O)nc2ccc(Cl)c3c2c1-c1ccccc1C3=O [MLS000704595] | – | 5.86 µM |
| COc1cc(C=NNC(=O)CN(Cc2ccco2)S(=O)(=O)c2ccccc2)ccc1O [N-(2-furanylmethyl)-N-[2-[[(E)-(3-methoxy-4-oxo-1-cyclohexa-2,5-dienylidene)methyl]hydrazo]-2-oxoethyl]benzenesulfonamide] | 18.4 µM | – |
| CC(=O)c1ccc(NC(=O)c2ccc3nc(-c4ccco4)c(-c4ccco4)nc3c2)cc1 [N-(4-acetylphenyl)-2,3-di-2-furyl-6-quinoxalinecarboxamide] | – | 23.1 µM |
| COc1ccc(CCNC(=O)c2ccc3nc(-c4ccco4)c(-c4ccco4)nc3c2)cc1OC [N-[2-(3,4-dimethoxyphenyl)ethyl]-2,3-di-2-furylquinoxaline-6-carboxamide] | – | 20.7 µM |
| COCCCNc1nc(S)nc2cc(OC)c(OC)cc12 [SMR000026607] | – | 3.65 µM |
| CN(N=Cc1cccnc1)C1=NS(=O)(=O)c2ccccc21 [SMR000207578] | – | 19.2 µM |
| Nc1c(C(=O)NCC2CCCO2)sc2nc3c(c(-c4ccco4)c12)CC/C3=C\c1ccco1 (stereo unspecified) [SMR000259502] | 6.11 µM | – |
| Nc1c(C(=O)NC2CC2)sc2nc3c(c(-c4ccco4)c12)CC/C3=C/c1ccco1 [SMR000259554] | 9.01 µM | – |
| O=C1c2ccccc2-c2onc3ccc(N4CCCC4)c1c23 [SMR000279741] | – | 13.1 µM |

Next, values leading:

| EC50 | EC50 [1] | SMILES |
| --- | --- | --- |
| – | 7.92 µM | CCN(CC)c1ccc(-c2nn3c(-c4cccnc4)nnc3s2)cc1 |
| – | 2.97 µM | CCOC(=O)c1ccc(Nc2nc(C(=O)OCC)nc3ccccc23)cc1 |
| 0.57 µM | – | COc1cccc(CN=Nc2nn3cnnc3c3ccccc23)c1O |
| – | 5.19 µM | Cc1ccc(-c2ccc(/C=C/C(=O)c3ccccc3)o2)cc1 |
| – | 12.8 µM | COc1ccc(-n2c(=O)c3ccccc3c3ccccc3c2=O)c(OC)c1 |
| – | 2.12 µM | CCOC(=O)c1c2c3c(cccc3[nH]c1=O)C(=O)c1ccccc1-2 |
| 0.39 µM | – | Cc1nc2ncccn2c1-c1csc(Nc2ccc(O)cc2)n1 |
| – | 2.14 µM | Cc1ccc(C(=O)/C=C/c2ccc(-c3ccc(C)cc3)o2)cc1 [1-p-Tolyl-3-(5-p-tolyl-furan-2-yl)-propenone] |
| – | 11.3 µM | O=C(CSc1ccc2nnc(-c3ccccn3)n2n1)Nc1nccs1 [2-[[3-(2-pyridinyl)-[1,2,4]triazolo[4,3-b]pyridazin-6-yl]thio]-N-(2-thiazolyl)acetamide] |
| – | 7.17 µM | c1cncc(-c2nnc3n2N=C(c2cccs2)CS3)c1 [3-pyridin-3-yl-6-thiophen-2-yl-7H-[1,2,4]triazolo[3,4-b][1,3,4]thiadiazine] |
| – | 10.1 µM | Cc1nc2ncccn2c1-c1csc(Nc2ccccc2)n1 [4-(2-methyl-3-imidazo[1,2-a]pyrimidinyl)-N-phenyl-2-thiazolamine] |
| – | 26.5 µM | CCOc1ccccc1-n1c(=O)c2ccccc2c2ccccc2c1=O [6-(2-ethoxyphenyl)-5H-dibenzo[c,e]azepine-5,7(6H)-dione] |
| – | 2.85 µM | COc1ccc(C2=Nn3c(nnc3-c3ccco3)SC2)cc1OC [6-(3,4-Dimethoxy-phenyl)-3-furan-2-yl-7H-[1,2,4]triazolo[3,4-b][1,3,4]thiadiazine] |
| – | 14.3 µM | CCOc1ccc(C2=Nn3c(nnc3-c3ccccn3)SC2)cc1 [6-(4-ethoxyphenyl)-3-(2-pyridinyl)-7H-[1,2,4]triazolo[3,4-b][1,3,4]thiadiazine] |
| – | 13.7 µM | O=c1nc2c(O)cccn2c2c1c(O)nc1ccccc12 [9-Hydroxy-5H-5,8,12a-triaza-benzo[c]phenanthrene-6,7-dione] |
| – | 2.82 µM | CN(N=C/C=C/c1ccccc1)C1=NS(=O)(=O)c2ccccc21 [(1E,2E)-3-phenylacrylaldehyde (1,1-dioxido-1,2-benzisothiazol-3-yl)(methyl)hydrazone] |
| 2.43 µM | – | COc1cc(CN=Nc2nn3cnnc3c3ccccc23)ccc1O [(4E)-2-methoxy-4-[[2-([1,2,4]triazolo[3,4-a]phthalazin-6-yl)hydrazinyl]methylidene]cyclohexa-2,5-dien-1-one] |
| – | 78.6 µM | Cc1ccc(-c2ccc(/C=C3\SC(N4CCOCC4)=NC3=O)o2)cc1 [(5Z)-5-[[5-(4-methylphenyl)-2-furanyl]methylidene]-2-(4-morpholinyl)-4-thiazolone] |

| EC50 | EC50 [1] | SMILES |
| --- | --- | --- |
| 9.36 µM | – | O=C(/C=C\c1ccc(-c2ccccc2)o1)c1ccccc1 [(Z)-1-phenyl-3-(5-phenyl-2-furanyl)-2-propen-1-one] |
| – | 10.2 µM | O=C1c2ccccc2-c2onc3ccc(NCc4ccco4)c1c23 [MLS000080234] |
| – | 11.7 µM | Cc1cc(-c2nnc3n2N=C(c2ccc(-c4ccccc4)cc2)CS3)[nH]n1 [MLS000082991] |
| – | 18.7 µM | COc1ccc(C)cc1-n1c(=O)c2ccccc2c2ccccc2c1=O [MLS000682999] |
| – | 46.1 µM | Cc1ccc(OCc2cn3cccnc3n2)cc1 [MLS000723172] |
| 83.6 µM | – | COc1cccc2c(SCC(=O)NN=Cc3ccc(O)cc3O)cc(C)nc12 [N'-[(E)-(2-hydroxy-4-oxo-1-cyclohexa-2,5-dienylidene)methyl]-2-[(8-methoxy-2-methyl-4-quinolinyl)thio]acetohydrazide] |
| – | 6.98 µM | c1ccc(Nc2cccc(Nc3ccccc3)n2)cc1 [N,N'-diphenyl-2,6-pyridinediamine] |
| 2.04 µM | – | COc1cccc(CN=Nc2nn3cnnc3c3ccccc23)c1 [N-[1-(3-Methoxy-phenyl)-meth-(E)-ylidene]-N'-[1,2,4]triazolo[3,4-a]phthalazin-6-yl-hydrazine] |
| – | 50.4 µM | Cc1cccc(C(=O)/N=c2\c(C#N)cc3c(=O)n4cccc(C)c4nc3n2Cc2ccco2)c1 [N-[3-cyano-1-(furan-2-ylmethyl)-10-methyl-5-oxodipyrido[3,4-c:1',2'-f]pyrimidin-2-ylidene]-3-methylbenzamide] |
| 1.14 µM | – | O=C1c2ccccc2-c2onc3ccc(NCCCn4ccnc4)c1c23 [SMR000044769] |
| – | 20.6 µM | CSc1nnc2c3cc(C)ccc3n(Cc3ccccc3)c2n1 [SMR000046397] |
| – | 21.9 µM | c1ccc(-c2nc(N3CCCCCC3)c3ccccc3n2)nc1 [SMR000046752] |
| – | 11.7 µM | C#CCn1cc(C=C2C(=O)c3ccccc3C2=O)c2ccccc21 [SMR000196125] |
| 49.7 µM | – | Clc1nc2ccccc2cc1CN=Nc1nc2ccccc2[nH]1 [SMR000221568] |
| – | 17.6 µM | COc1ccc(OC)c(-n2c(=O)c3ccccc3c3ccccc3c2=O)c1 [SMR000236434] |
| – | 22.2 µM | O=C(CSc1ccc2nnc(-c3ccncc3)n2n1)Nc1nccs1 [SMR000320332] |
| 5.17 µM | – | Cc1nnc2ccc(-c3cccc(NC(=O)c4ccco4)c3)nn12 [SMR000324305] |
| – | 1.14 µM | O=C(Nc1cccc(Cl)c1)Nc1ccnc(-c2cccnc2)n1 [SMR000337179] |
